According to US20130164379A1, “NANOPARTICLE MICELLE COATED COMPOSITIONS” (priority 2011, published 2013):

Columns and labels:
purified proteasomes = target: T1, purified proteasomes (Homo sapiens, UniProt P28072); experiment: Proteasome activity assay on purified proteasomes; type: biochemical; conditions: bortezomib 5 nM, thiostrepton 20 μM
T1 construct: purchased Enzo
Method: To assay proteasome inhibitor activities of proteasome inhibitors purified proteasomes, (0.5 μg, 1 μg/μL) were pre-incubated with inhibitors bortezomib (5 nM, 1 μL of 0.5 μM in DMSO) and/or thiostrepton (20 μM, 1 μL of 2 mM) in 10× assay buffer (10 μL) and H2O (88.5 μL) for 30 min at room temperature. Ac-YVAD-amc substrate (10 μL, 0.5 mM) was then added and the assay solution was incubated at […] for 2 hr, after which solutions were examined for fluorescence at excitation wavelength of 340 nm and emission wavelength of 505 nm. Values are represented as a % of the proteasome activity of non-inhibited proteasomes.

[1] = test system: U2OS-C3 osteosarcoma cells; experiment: Immunoblotting for caspase-3 cleavage, thiostrepton and bortezomib; type: cell-based, human; conditions: U2OS-C3, sub-apoptotic concentrations, 24 hr
Method: U2OS-C3 osteosarcoma, PA-1 ovarian, HCT116 colon and MiaPaca-2 pancreatic cancer cells were cultured in DMEM medium (Invitrogen). HCT-116 and MiaPaca-2 (shFOXM1) cells were cultured in DMEM medium (Invitrogen). MDA-MB231 (parental and shFOXM1) cells were grown in RPMI-1640 medium (Invitrogen). The media were supplemented with 10% fetal bovine serum (Atlanta Biologicals) and 1% penicillin-streptomycin (GIBCO) and the cells were kept at 37° C. in 5% CO2. Stable cell lines were generated by transduction of FOXM1 shRNA lentiviral particles (Sigma) followed by selection with puromycin (Sigma).
Actively dividing cells were seeded into a 100-mm plate at a density of 7.5×10^5 cells. […] Cells were lysed in IP buffer (20 mM HEPES, 1% Triton X-100, 150 mM NaCl, 1 mM EDTA, 1 mM EGTA, 100 mM NaF, 10 mM Na4P2O7, 1 mM sodium orthovanadate, 0.2 mM PMSF supplemented with protease inhibitor tablet and the protein concentration was determined using the Bio-Rad protein assay reagent. Fifty micrograms of the cell lysates were separated by electrophoresis on SDS-polyacrylamide mini gel and transferred to PVDF membrane Immunoblotting was performed with specific antibodies for cleaved caspase-3 (9664 Cell Signaling), FOXM1 (Dr. Costa) and β-actin (A5441, Sigma).

HCT-116 cells = experiment: Detection of apoptosis by annexin V-PE/7AAD flow cytometry; type: cell-based, human; conditions: HCT-116, 0.75 μM thiostrepton, 10 nM bortezomib, 24 hr; single drugs over the control
Method: The AnnexinV-PE staining kit (559763, BD Bio. Sci.) was used for the detection of apoptotic bodies following the vendor's protocol. This kit uses a dual-staining protocol in which the cells show fluorescence of Annexin V (apoptotic cells) and fluorescence of 7AAD (necrotic cells or late apoptotic cells). Briefly the tumor cells were grown at a density of 50% confluence in 100-mm culture dishes and were treated with varying concentrations of the drugs for 24 hr. The cells were trypsinized, washed with PBS, and were processed for labeling with annexinV-7AAD. The labeled cells were analyzed by flow cytometry.

[2] = Solubility observation of thiostrepton in cell media; type: physicochemical; conditions: DMSO-dissolved thiostrepton added to cell media
[3] = test system: DEN/PB hepatocellular carcinoma mouse model
Method: The efficacy of nanoparticle micelle coated compositions containing thiostrepton in inhibiting tumor growth in DEN/PB hepatocellular carcinoma mouse model was evaluated.
Spontaneous induction of HCC was achieved by intraperitonial injection of the carcinogen diethylnitrosamine (DEN) into 2-day-old neonatal BALB/C mice. Carcinogenesis was further induced by continuing the mice on phenobarbital (PB)-doped drinking water (1 mg/mL). […] As a treatment schedule, animals were treated once every other day (3 times a week) for 5 weeks before sacrifice, after which livers were removed and examined for visible tumor growth (FIG. 14b).
Animal livers were then fixed in 4% paraformaldehyde, embedded in paraffin wax and the right lobe of embedded livers were sectioned and stained with H&E for quantitative analysis of carcinoma formation.

[4] = test system: MDA-MB-231-luc solid breast tumor xenografts; experiment: MDA-MB-231-luc breast tumor xenograft, combination with bortezomib; type: in vivo, athymic mice; conditions: thiostrepton 30 mg/kg i.v., bortezomib 0.5 mg/kg i.p., 5 injections
Method: Animals were maintained and treated in accordance with the Animal Care and Use Committee of UIC. […] Treatment began once tumors reached sizes of 100 mm^3. After completion of the dosing schedule, animals were sacrificed and tumors were removed. Tumors were frozen in liquid N2 and kept at −80° C. until further analysis.
Treatments were performed once every two days (3 times a week), during which tumor volumes were monitored with calipers (l×w×h=volume, mm^3). Animals were also weighed once a week. After 5 treatments, animals were sacrificed and tumors removed.
For bioluminescence imaging, animals were injected intraperitonially with 100 mg luciferin/kg 10 min before animals were anaesthetized under isoflurane. Animals were then imaged for tumor-associated bioluminescence (IVIS, Xenogen), where relative units of bioluminescence were quantified as flux (photon/sec) and analyzed with Living Image software.

Structure (SMILES) | inhibition of purified proteasomes (YVAD-amc cleavage) (purified proteasomes) | caspase-3 cleavage [1] | apoptosis (annexin V-PE/7AAD) (HCT-116 cells) | solubility [2] | body weights of treated animals compared to non-treated animals ([3]; 3 times a week for 5 weeks) | number of adenomas compared to livers from non-treated animals ([3]; single treatments, H&E sections) | fewer number of visible liver tumors compared to non-treated control animals ([3]; thiostrepton-micelle 30 mg/kg i.v., bortezomib 0.5 mg/kg i.p., 3 times a week for 5 weeks) | tumor size / tumor growth compared to non-treated tumors [4] | increase in tumor size compared to the first day of treatment ([4]; 15 days)
C=C(NC(=O)C(=C)NC(=O)c1csc(C2=N[C@@H]3c4csc(n4)[C@H]4NC(=O)c5csc(n5)[C@H]([C@](C)(O)[C@@H](C)O)NC(=O)[C@H]5CSC(=N5)/C(=C/C)NC(=O)[C@H]([C@@H](C)O)NC(=O)c5csc(n5)[C@]3(CC2)NC(=O)[C@H](C)NC(=O)C(=C)NC(=O)[C@H](C)NC(=O)[C@H]([C@@H](C)CC)N[C@@H]2C=Cc3c([C@H](C)O)cc(nc3[C@H]2O)C(=O)O[C@@H]4C)n1)C(N)=O [thiostrepton] | only slightly hindered | little or no caspase-3 cleavage | 6.1% | highly insoluble |  |  |  |  | 
CC(C)C[C@H](NC(=O)[C@H](Cc1ccccc1)NC(=O)c1cnccn1)B(O)O [bortezomib] | only slightly hindered | little or no caspase-3 cleavage | 6.9% |  | did not decrease significantly | suppression of the number of adenomas | 50% | slight reduction in tumor growth | 6 fold
